Data on three molecules can be found in patent publication US20180338899A1, “INHIBITORS FOR METHYLATION-RELATED ENZYMES HAT1 AND KAT8” (priority 2015, published 2018).

The subject of data set [1] is various tumors (cancer and sarcoma types). Kind of data set: Drug sensitivity test, anti-tumor effect on various tumors. The class given is cell-based. The settings on record: within an effective blood concentration or even at the minimum effective blood concentration or less; values only in FIG. 13. The source says: Moreover, how chlorpropamide exerted an anti-tumor effect on various tumors was investigated. Target tumor types, which are classified into cancer (epithelial malignant tumors), include thyroid cancer, malignant brain tumor, malignant melanoma, lung cancer, gastric cancer, liver cancer, pancreatic cancer, colon cancer, cervical cancer, ovarian cancer, bladder cancer, and neuroblastoma. Target tumor types, which are classified into sarcoma (non-epithelial malignant tumors), include fibrosarcoma and osteosarcoma.
The concentrations of chlorpropamide were represented in a ratio when the maximum effective blood concentration was set to 1 as described above. […] The results mean that chlorpropamide can be used as an effective and safe anti-malignant tumor agent acting on various tumors.

Data set [2] deals with T1, KAT8 (Homo sapiens, UniProt Q9H7Z6).
T1 sequence (Q9H7Z6 1-458): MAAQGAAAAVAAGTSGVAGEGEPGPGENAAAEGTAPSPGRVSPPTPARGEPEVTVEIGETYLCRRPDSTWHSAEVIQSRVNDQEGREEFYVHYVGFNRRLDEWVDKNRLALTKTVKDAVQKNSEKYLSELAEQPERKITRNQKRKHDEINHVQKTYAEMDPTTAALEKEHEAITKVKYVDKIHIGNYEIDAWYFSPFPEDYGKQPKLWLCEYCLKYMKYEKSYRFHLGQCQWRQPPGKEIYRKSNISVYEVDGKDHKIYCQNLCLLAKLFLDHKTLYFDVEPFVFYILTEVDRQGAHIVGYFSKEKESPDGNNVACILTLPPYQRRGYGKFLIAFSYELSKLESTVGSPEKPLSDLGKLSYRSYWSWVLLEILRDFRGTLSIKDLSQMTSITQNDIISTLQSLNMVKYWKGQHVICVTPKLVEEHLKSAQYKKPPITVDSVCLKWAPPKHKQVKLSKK
The data set is described as follows: FDA library screening (analysis service PLEXERA) and binding strength, KAT8. The source says: (§1) Medicines containing each as an active ingredient (provided that each medicine has an indication other than that for malignant tumors) have already been commercially available.
(§2) Meanwhile, medicines containing each as an active ingredient (provided that each medicine has an indication other than that for malignant tumors) have already been commercially available.

For data set [3], the target named is T2, HAT1 (Homo sapiens, UniProt O14929).
T2 sequence (O14929 1-419): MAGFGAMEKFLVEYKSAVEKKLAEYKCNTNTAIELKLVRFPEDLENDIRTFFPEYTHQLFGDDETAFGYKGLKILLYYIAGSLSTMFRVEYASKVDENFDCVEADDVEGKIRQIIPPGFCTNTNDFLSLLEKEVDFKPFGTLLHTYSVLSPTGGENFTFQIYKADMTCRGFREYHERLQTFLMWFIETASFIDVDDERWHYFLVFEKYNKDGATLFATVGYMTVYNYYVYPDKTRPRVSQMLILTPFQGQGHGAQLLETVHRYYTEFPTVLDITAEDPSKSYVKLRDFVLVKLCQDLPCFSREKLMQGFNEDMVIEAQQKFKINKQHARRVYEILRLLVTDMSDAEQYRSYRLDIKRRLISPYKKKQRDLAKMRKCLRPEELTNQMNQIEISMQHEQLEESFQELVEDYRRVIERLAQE
The data set is described as follows: FDA library screening (analysis service PLEXERA) and binding strength, HAT1.
Text: as §1, §2

Data set [4] concerns KAT8. Kind of data set: Inhibitory effect of low-molecular-weight compounds on expression of KAT8 by RT-PCR. The settings on record: FIG. 6. The data set is classed as cell-based.
In data set [5] the test system is HLF cells. Kind of data set: Cell death and cell growth suppression rate of HLF cells, 3D cell culture spheroid counter Cell3iMager. The class given is cell-based. As for the experimental part:
In addition, chlorpropamide or MG149 was added to HLF cells on culture plates and the cell death and cell growth suppression rate were inspected using a 3D cell culture spheroid counter Cell 3 i Mager (SCREEN, Inc., Kyoto). […] The rows indicate the days of culture and the columns show the kinds and concentrations of the compounds. The concentrations of chlorpropamide were represented in a ratio when the maximum effective blood concentration was set to 1. As the maximum effective blood concentration of chlorpropamide was used 30 µg/ml (which is a value described in the interview form of a commercially available medicine containing chlorpropamide as an active ingredient).

Data set [6] relates to HAT1. The data set is described as follows: Inhibitory effect of low-molecular-weight compounds on expression of HAT1 by RT-PCR. The class given is cell-based. The settings on record: FIG. 6.
For data set [7] the following is noted: interview form of commercially available medicine; cited from earlier work.
For data set [8], the target named is T2, HAT1. The settings on record: stated as property of the compound, no test described; cited from earlier work.
Data set [9] has as its system HLF cells. Kind of data set: Cell growth suppression of HLF cells on culture plates. The class given is cell-based. The settings on record: 360 μg/L, day 3 and day 7. As for the experimental part:
First, HLF cells were cultured on culture plates with RPMI1640 for 7 days. […] In the figures, the “D” denotes days.
Furthermore, rebamipide was added to HLF cells on a culture pate, and the effect on the cells was examined.

Data set [10] concerns the target T1, KAT8. The settings on record: stated as property of the compound, no test described; cited from earlier work.

Regarding `CCCNC(=O)NS(=O)(=O)c1ccc(Cl)cc1` [chlorpropamide], the “cell growth suppression effect on various tumors” value in data set [1] is “elicited a cell growth suppression effect on each tumor”. In addition, the “inhibition of function of KAT8” value on KAT8 [2] was “inhibited function of both HAT1 and KAT8”. Also, the “inhibition of function of HAT1” value at HAT1 [3] was “inhibited function of both HAT1 and KAT8”. Further, the “inhibitory effect on expression of KAT8” value in the data set on KAT8 [4] was “inhibitory effect”. Besides, the “cell growth suppression effect” value with HLF cells [5] (within an effective blood concentration or even at the minimum effective blood concentration or less) is given as “elicited a cell growth suppression effect”. Besides, the “inhibitory effect on expression of HAT1” value in the data set on HAT1 [6] is reported as “inhibitory effect”. In addition, in data set [7], the “maximum effective blood concentration (Cmax)” value is 30000 ng/mL.
On to `O=C(NC(Cc1cc(=O)[nH]c2ccccc12)C(=O)O)c1ccc(Cl)cc1` (centres unmarked) [Rebamipide, rebamipide], for which the “inhibition of HAT1” value on HAT1 [8] is on record as “inhibits HAT1”. For the same molecule, the “cell growth suppression effect” value with HLF cells [9] is listed as “no cell growth suppression effect”. Besides, the “inhibition of KAT8” value at KAT8 [10] is reported as “does not inhibit KAT8”. In data set [7], the “maximum effective blood concentration (Cmax)” value is 360 ng/mL.
In the case of `CCCCCCCc1ccc(CCc2cccc(O)c2C(=O)O)cc1` [MG149], at HAT1 [8], the “inhibition of HAT1” value was “does not inhibit HAT1”. The “inhibition of KAT8” value on KAT8 [10] is “inhibits only KAT8”. In addition, the “cell growth suppression effect” value with HLF cells [5] (high concentration (30 μM)) is “failed to elicit a sufficient cell growth suppression effect”.
